This passage reports IC50 results from patent US20170296550A1, “ARYL SULTAM DERIVATIVES AS RORc MODULATORS” (Genentech, Inc., priority 2013, published 2017).

In the test the target is T1, RORc (Homo sapiens, UniProt P51449).
T1 construct: host or cells: E. coli
T1 sequence (P51449 269-508 limits assumed): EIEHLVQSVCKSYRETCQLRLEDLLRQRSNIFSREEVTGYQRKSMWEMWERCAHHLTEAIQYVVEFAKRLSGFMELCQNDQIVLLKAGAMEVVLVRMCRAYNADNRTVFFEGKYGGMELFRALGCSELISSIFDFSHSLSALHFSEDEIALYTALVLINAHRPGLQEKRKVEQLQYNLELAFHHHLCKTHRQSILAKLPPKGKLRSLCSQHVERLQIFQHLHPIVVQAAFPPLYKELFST
Nature of the test: In Vitro RORc Ligand Binding Assay (25-[3H]hydroxycholesterol radioligand, filter plate). Conditions: RORc ligand binding domain 0.6 ug/mL; 6 nM 25-[3H]hydroxycholesterol; 3 h at 25° C. The procedure: Example 68 In Vitro RORc Ligand Binding Assay
This assay was used to determine a compound's potency in inhibiting activity of RORc by determining, Kiapp, IC50, or percent inhibition values.
On day of the assay, 100 uL of 0.05% CHAPS (in deionized H2O) was added to all wells of the GFB Unifilter plate and allowed soak for 1 h. A wash buffer of 50 mM HEPES (pH 7.4), 150 mM NaCl, and 5 mM MgCl2 was prepared to wash the filter plate. To prepare an assay buffer, BSA was added to the wash buffer to reach 0.01% and DTT was added to reach 1 mM.
For IC50 mode, 10 mM compound stocks were serially diluted in DMSO with DMSO to give 20× required final concentration in DMSO (15 uL compound+30 uL DMSO). The 20× compound stocks were diluted in DMSO with Assay Buffer 4-fold to reach 5× the final test concentration in 25% DMSO (10 uL compound+30 uL Assay Buffer). Solutions were mixed by aspiration several times with a pipette set on 50 uL volume. For the assay, 10 uL of 5× compound stock solutions in 25% DMSO were added to the assay plate in duplicate.
For two point screening, 10 mM stock compound solutions were diluted in DMSO to obtain 200 uM (20× the high test concentration) and then diluted 10-fold further to reach 20 uM (20× the low test concentration). The 20× stocks were diluted 4-fold with Assay Buffer (10 uL compound+30 uL Assay Buffer) to reach 5× the test concentrations (50 uM and 5 uM) and 10 uL were added to two assay plates for the duplicate wells. With each concentration tested on 2 plates, each set of 80 compounds used 4 assay plates (1 uM and 10 uM, with n=2).
25-hydroxycholesterol (1 uM) was used to determine the level of NSB signal is prepared in DMSO as for compounds above, then diluted in Assay Buffer to give a final concentration of 5 uM. For 25-hydroxycholesterol in 25% DMSO/75% Assay Buffer; 10 uL per well was used for NSB samples. Wells for Total Binding and No Receptor sample determination contained 10 uL of 25% DMSO/75% Assay Buffer per well.
Radioligand (25-[^3H]hydroxycholesterol) Preparation
25-[^3H]hydroxycholesterol was dilute in Assay Buffer to obtain 15 nM and vortex to mix. Add 20 uL to all wells to reach 6 nM final in the assay.
Stock receptor solution was diluted in assay buffer to obtain 1.5 ug/mL in Assay Buffer. 20 uL was added to all wells. For No R samples, 20 uL Assay Buffer was substituted for receptor solution.
Assay plates were 96-well polypropylene V-bottom plates. 10 uL of 5× compound in 25% DMSO/75% Assay Buffer was added to Test wells. 10 uL of 25% DMSO/75% Assay Buffer was added to Total Binding or No Receptor wells. 10 uL of 5 uM 25-hydroxycholesterol in 25% DMSO/75% Assay Buffer was added to NSB wells. 20 uL of 15 nM 25-[^3H]hydroxycholesterol prepared in Assay Buffer was added to all wells. 20 uL of 1.5 ug/mL RORc receptor was added to wells (or […] Assay Buffer to No R wells). Following addition to the wells, the plates were incubated 3 h at 25° C.
Using a Packard Filtermate Harvester, the filter plate were washed 4 times following transfer of the incubated samples. Plates were dry-filtered completely (2 h at 50° C. or overnight at room temperature). 50 uL Microscint 0 was added to all wells and read on Topcount protocol Inverted.
Final concentrations were as follows: 50 mM HEPES buffer (pH 7.4); 150 mM NaCl; 1 mM DTT; 5 mM MgCl2; 0.01% BSA; 5% DMSO; 0.6 ug/mL RORc receptor; 6 nM 25-[^3H]hydroxycholesterol. For NSB wells, 1 uM 25-hydroxycholesterol was also present.
`CNC(=O)c1ccc(-c2ccc(CN3[C@@H](C)CCC(c4ccccc4)S3(=O)=O)c(F)c2)cn1` (stereo partly drawn) [Example 36, 5-[3-Fluoro-4-((3S)-3-methyl-1,1-dioxo-6-phenyl-[1,2]thiazinan-2-ylmethyl)-phenyl]-pyridine-2-carboxylic acid methylamide] came in with an IC50 of 1600 nM. As to `C[C@H]1CCC(c2ccccc2)S(=O)(=O)N1Cc1ccc(-c2ccc(S(C)(=O)=O)cn2)cc1F` (stereo partly drawn) [Example 38, (3S)-2-[2-Fluoro-4-(5-methanesulfonyl-pyridin-2-yl)-benzyl]-3-methyl-6-phenyl-[1,2]thiazinane 1,1-dioxide], the IC50 stood at 87 nM.

In turn, `C[C@H]1CCC(c2ccccc2)S(=O)(=O)N1Cc1ccc(-c2ccc(S(C)(=O)=O)nc2)cc1F` (stereo partly drawn) [Example 39, (3S)-2-[2-Fluoro-4-(6-methanesulfonyl-pyridin-3-yl)-benzyl]-3-methyl-6-phenyl-[1,2]thiazinanc 1,1-dioxide] displayed an IC50 of 151 nM. Turning to `C[C@H]1CCC(c2ccccc2)S(=O)(=O)N1Cc1ccc(-c2cnc(S(C)(=O)=O)nc2)cc1F` (stereo partly drawn) [Example 40, (3S)-2-[2-Fluoro-4-(2-mcthanesulfonyl-pyrimidin-5-yl)-benzyl]-3-methyl-6-phenyl-[1,2]thiazinane 1,1-dioxide], the IC50 worked out at 989 nM.

Compound `Cc1cccnc1COc1ccc(CN2[C@@H](C)CCC(c3ccccc3)S2(=O)=O)cc1` (stereo partly drawn) [Example 46, (3S)-3-Methyl-2-[4-(3-methyl-pyridin-2-ylmethoxy)-benzyl]-6-phenyl-[1,2]thiazinane 1,1-dioxide] had an IC50 of 153 nM. `Cc1cnccc1COc1ccc(CN2[C@@H](C)CCC(c3ccccc3)S2(=O)=O)cc1` (stereo partly drawn) [Example 47, (3S)-3-Methyl-2-[4-(3-methyl-pyridin-4-ylmethoxy)-benzyl]-6-phenyl-[1,2]thiazinane 1,1-dioxide]: the IC50 is 205 nM.

`C[C@H]1CCC(c2ccccc2)S(=O)(=O)N1Cc1ccc(OCc2ncccn2)cc1` (stereo partly drawn) [Example 48, (3S)-3-Methyl-6-phenyl-2-[4-(pyrimidin-2-ylmethoxy)-benzyl]-[1,2]thiazinane 1,1-dioxide] returned an IC50 of 1630 nM. `C[C@H]1CCC(c2ccccc2)S(=O)(=O)N1Cc1ccc(OCc2cncn2C)cc1` (stereo partly drawn) [Example 49, (3S)-3-Methyl-2-[4-(3-methyl-3H-imidazol-4-ylmethoxy)-benzyl]-6-phenyl-[1,2]thiazinane 1,1-dioxide] registered an IC50 of 295 nM.

Compound `Cc1cnc(COc2ccc(CN3[C@@H](C)CCC(c4ccccc4)S3(=O)=O)cc2)nc1` (stereo partly drawn) [Example 51, (3S)-3-Methyl-2-[4-(5-methyl-pyrimidin-2-ylmethoxy)-benzyl]-6-phenyl-[1,2]thiazinane 1,1-dioxide] registered an IC50 of 1180 nM. In turn, `Cc1ncccc1COc1ccc(CN2[C@@H](C)CCC(c3ccccc3)S2(=O)=O)cc1` (stereo partly drawn) [Example 52, (3S)-3-Methyl-2-[4-(2-methyl-pyridin-3-ylmethoxy)-benzyl)-6-phenyl-[1,2]thiazinane 1,1-dioxide] returned an IC50 of 57 nM. `Cc1oncc1COc1ccc(CN2[C@@H](C)CCC(c3ccccc3)S2(=O)=O)cc1` (stereo partly drawn) [Example 53, (3S)-3-Methyl-2-[4-(5-methyl-isoxazol-4-ylmethoxy)-benzyl]-6-phenyl-[1,2]thiazinane 1,1-dioxide] yielded an IC50 of 208 nM.

Compound `Cc1cc(COc2ccc(CN3[C@@H](C)CCC(c4ccccc4)S3(=O)=O)cc2)cc(C)n1` (stereo partly drawn) [Example 54, (3S)-2-[4-(2,6-Dimethyl-pyridin-4-ylmethoxy)-benzyl]-3-methyl-6-phenyl-[1,2]thiazinane 1,1-dioxide] yielded an IC50 of 295 nM. In turn, `Cc1cc(COc2ccc(CN3[C@@H](C)CCC(c4ccccc4)S3(=O)=O)cc2)n(C)n1` (stereo partly drawn) [Example 55, (3S)-2-[4-(2,5-Dimethyl-2H-pyrazol-3-ylmethoxy)-benzyl]-3-methyl-6-phenyl-[1,2]thiazinane 1,1-dioxide] registered an IC50 of 387 nM. In the case of `C[C@H]1CCC(c2ccccc2)S(=O)(=O)N1Cc1ccc(OCCn2ccnc2)cc1` (stereo partly drawn) [Example 56, (3S)-2-[4-(2-Imidazol-1-yl-ethoxy)-benzyl]-3-methyl-6-phenyl-[1,2]thiazinane 1,1-dioxide], the IC50 amounted to 316 nM. `CCS(=O)(=O)c1ccc(-c2ccc(CN3[C@@H](C)CCC(c4ccccc4)S3(=O)=O)c(F)c2)cc1` (stereo partly drawn) [Example 59, (3S)-2-(4′-Ethanesulfonyl-3-fluoro-biphenyl-4-ylmethyl)-3-methyl-6-phenyl-[1,2]thiazinane 1,1-dioxide] came in with a half-maximal inhibitory concentration (IC50) of 69 nM.

With `Cc1noc(C)c1COc1ccc(CN2[C@@H](C)CCC(c3ccccc3)S2(=O)=O)cc1` (stereo partly drawn) [Example 60, (3S)-2-[4-(3,5-Dimethyl-isoxazol-4-ylmethoxy)-benzyl]-3-methyl-6-phenyl-[1,2]thiazinane 1,1-dioxide], the IC50 came to 151 nM.
